Target: wild-type un-phosphorylated FGFR3 protein (Homo sapiens, UniProt P22607)
Test: FGFR Enzymatic Assay (FRET detection of peptide phosphorylation)
Type: biochemical
Conditions: pre-incubated for 4 hours, read-out: FGFR3_Ki
Experimental: The inhibitor potency of the exemplified compounds was determined in an enzyme discontinuous assay that measures peptide phosphorylation using FRET measurements to detect product formation. Inhibitors were serially diluted in DMSO and a volume of 0.2 μL was transferred to the wells of a 384-well plate. A 5 μL/well volume of enzyme isoforms of FGFR (−1, −2, −3 wild-type and mutant isoforms, −4) including phosphorylated and un-phosphorylated proteins diluted in assay buffer (50 mM HEPES, 10 mM MgCl2, 1 mM EGTA, 0.01% Tween-20, 5 mM DTT, pH 7.5) was added to the plate and pre-incubated with inhibitor for 5 to 15 minutes at ambient temperature. Appropriate controls (enzyme blank and enzyme with no inhibitor) were included on the plate. […] The ATP Km values were pre-determined in a separate series of experiments. The reaction plate was incubated at 25° C. for 1 hr and the reactions were ended with the addition of 5 μL/well of quench solution (50 mM Tris, 150 mM NaCl, 0.5 mg/mL BSA, pH 7.8; 45 mM EDTA, 600 nM staurosporin, with Perkin Elmer Lance Reagents at 3.75 nM Eu-antibody PY20 and 180 nM APC-Streptavidin). The plate was allowed to equilibrate for ˜10 minutes at ambient temperature before scanning on a PheraStar plate reader (BMG Labtech) instrument.
Either GraphPad prism or XLfit was used to analyze the data. The IC50 values were derived by fitting the data to a four parameter logistic equation producing a sigmoidal dose-response curve with a variable Hill coefficient. Prism equation: Y=Bottom+(Top−Bottom)/(1+10^((LogIC50−X)*Hill slope)); XLfit equation: Y=(A+((B−A)/(1+((X/C)^D)))) where X is the logarithm of inhibitor concentration and Y is the response.
The data in Table 1 was measured in wild-type un-phosphorylated FGFR3 protein.

Chain of wild-type un-phosphorylated FGFR3 protein (P22607 23-806): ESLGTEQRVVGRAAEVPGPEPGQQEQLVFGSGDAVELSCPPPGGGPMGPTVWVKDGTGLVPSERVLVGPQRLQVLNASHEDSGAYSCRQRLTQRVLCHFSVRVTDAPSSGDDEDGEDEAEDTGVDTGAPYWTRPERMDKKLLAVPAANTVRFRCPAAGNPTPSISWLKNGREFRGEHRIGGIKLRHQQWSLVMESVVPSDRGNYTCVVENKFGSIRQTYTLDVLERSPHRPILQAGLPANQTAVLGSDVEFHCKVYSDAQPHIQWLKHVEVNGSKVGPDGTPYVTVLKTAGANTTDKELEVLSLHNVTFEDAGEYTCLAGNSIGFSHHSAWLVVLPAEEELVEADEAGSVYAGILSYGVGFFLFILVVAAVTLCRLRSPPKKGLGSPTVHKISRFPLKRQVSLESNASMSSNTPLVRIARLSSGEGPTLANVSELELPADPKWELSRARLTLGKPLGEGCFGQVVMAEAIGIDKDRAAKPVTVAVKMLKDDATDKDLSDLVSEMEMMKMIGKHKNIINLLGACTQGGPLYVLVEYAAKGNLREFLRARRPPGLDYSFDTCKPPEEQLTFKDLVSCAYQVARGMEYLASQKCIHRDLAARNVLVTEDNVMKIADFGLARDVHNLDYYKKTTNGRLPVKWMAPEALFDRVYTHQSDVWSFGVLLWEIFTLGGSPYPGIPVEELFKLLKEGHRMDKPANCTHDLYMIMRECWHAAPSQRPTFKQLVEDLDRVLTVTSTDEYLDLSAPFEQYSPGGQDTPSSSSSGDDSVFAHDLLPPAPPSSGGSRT

Ki | SMILES
< 10 nM | Cc1c(-c2c(Cl)cccc2C(F)(F)F)nc2c3cc(-c4cnn([C@H]5CCN(C(=O)CO)C5)c4)cnc3ccn12 [Example 25, (S)-1-(3-(4-(2-(2-Chloro-6-(trifluoromethyl)phenyl)-3-methylimidazo[2,1-f][1,6]naphthyridin-9-yl)-1H-pyrazol-1-yl)pyrrolidin-1-yl)-2-hydroxyethan-1-one]
< 10 nM | Cn1cc(-c2cnc3ccn4c(C5CC5)c(-c5ccccc5Cl)nc4c3n2)cn1 [Example 13, 9-(2-Chlorophenyl)-8-cyclopropyl-2-(1-methyl-1H-pyrazol-4-yl)imidazo[1′,2′:1,2]pyrido[3,4-b]pyrazine]
< 10 nM | OCc1c(-c2c(Cl)cccc2Cl)nc2c3cc(-c4cnn(C5CC5)c4)cnc3ccn12 [Example 69, (9-(1-Cyclopropyl-1H-pyrazol-4-yl)-2-(2,6-dichlorophenyl)imidazo[2,1-f][1,6]naphthyridin-3-yl)methanol]
10 to 100 nM | Cc1c(-c2ccccc2Cl)nc2c3cc(-c4cnn(C)c4)cnc3ccn12 [Example 1, 2-(2-Chlorophenyl)-3-methyl-9-(1-methyl-1H-pyrazol-4-yl)imidazo[2,1-f][1,6]naphthyridine]
10 to 100 nM | Cc1c(-c2c(Cl)cccc2Cl)nc2c3cc(-c4cnn(C)c4)c(O)nc3ccn12 [Example 31, 2-(2,6-Dichlorophenyl)-3-methyl-9-(1-methyl-1H-pyrazol-4-yl)imidazo[2,1-f][1,6]naphthyridin-8-ol]
< 10 nM | COc1cc(OC)cc(-c2c(-c3ccccc3Cl)nc3c4cc(-c5cnn(C)c5)cnc4ccn23)c1 [Example 4, 2-(2-Chlorophenyl)-3-(3,5-dimethoxyphenyl)-9-(1-methyl-1H-pyrazol-4-yl)imidazo[2,1-f][1,6]naphthyridine]
< 10 nM | CN(C)C(=O)N[C@H]1CC[C@H](n2cc(-c3cnc4ccn5cc(-c6c(Cl)cccc6Cl)nc5c4c3)cn2)CC1 [Example 45, 3-((1r,4r)-4-(4-(2-(2,6-Dichlorophenyl)imidazo[2,1-f][1,6]naphthyridin-9-yl)-1H-pyrazol-1-yl)cyclohexyl)-1,1-dimethylurea]
< 10 nM | OCc1c(-c2c(Cl)cccc2Cl)nc2c3cc(-c4cnn(C5CCOC5)c4)cnc3ccn12 (stereo not drawn) [Example 70, (2-(2,6-Dichlorophenyl)-9-(1-(tetrahydrofuran-3-yl)-1H-pyrazol-4-yl)imidazo[2,1-f][1,6]naphthyridin-3-yl)methanol]
< 10 nM | N#CCCn1cc(-c2cnc3ccn4c(CO)c(-c5c(Cl)cccc5Cl)nc4c3c2)cn1 [Example 75, 3-(4-(2-(2,6-Dichlorophenyl)-3-(hydroxymethyl)imidazo[2,1-f][1,6]naphthyridin-9-yl)-1H-pyrazol-1-yl)propanenitrile]
< 10 nM | O=C(O)[C@H]1CC[C@H](n2cc(-c3cnc4ccn5c(C6CC6)c(-c6ccccc6Cl)nc5c4c3)cn2)CC1 [Example 16, (1R,4R)-4-(4-(2-(2-Chlorophenyl)-3-cyclopropylimidazo[2,1-f][1,6]naphthyridin-9-yl)-1H-pyrazol-1-yl)cyclohexane-1-carboxylic acid]
< 10 nM | CC(=O)N1CCC(n2cc(-c3cnc4ccn5cc(-c6c(Cl)cccc6Cl)nc5c4c3)cn2)C1 (stereo not drawn) [Example 15, 1-(3-(4-(2-(2,6-Dichlorophenyl)imidazo[2,1-f][1,6]naphthyridin-9-yl)-1H-pyrazol-1-yl)pyrrolidin-1-yl)ethan-1-one]
< 10 nM | Cc1c(-c2c(Cl)cccc2Cl)nc2c3cc(-c4cnn(C5CN(C(=O)c6cocn6)C5)c4)cnc3ccn12 [Example 39, (3-(4-(2-(2,6-Dichlorophenyl)-3-methylimidazo[2,1-f][1,6]naphthyridin-9-yl)-1H-pyrazol-1-yl)azetidin-1-yl)(oxazol-4-yl)methanone]
< 10 nM | COCC(=O)N[C@H]1CC[C@H](n2cc(-c3cnc4ccn5cc(-c6c(Cl)cccc6Cl)nc5c4c3)cn2)CC1 [Example 44, N-((1r,4r)-4-(4-(2-(2,6-Dichlorophenyl)imidazo[2,1-f][1,6]naphthyridin-9-yl)-1H-pyrazol-1-yl)cyclohexyl)-2-methoxyacetamide]
< 10 nM | CC(=O)N1CC2(CCC(n3cc(-c4cnc5ccn6cc(-c7c(Cl)cccc7Cl)nc6c5c4)cn3)CC2)C1 [Example 46, 1-(7-(4-(2-(2,6-Dichlorophenyl)imidazo[2,1-f][1,6]naphthyridin-9-yl)-1H-pyrazol-1-yl)-2-azaspiro[3.5]nonan-2-yl)ethan-1-one]
< 10 nM | Cc1c(-c2c(Cl)cccc2Cl)nc2c3cc(-c4cnn(C5CN(C(=O)C6(N)CCOCC6)C5)c4)cnc3ccn12 [Example 40, (4-Aminotetrahydro-2H-pyran-4-yl)(3-(4-(2-(2,6-dichlorophenyl)-3-methylimidazo[2,1-f][1,6]naphthyridin-9-yl)-1H-pyrazol-1-yl)azetidin-1-yl)methanone]
< 10 nM | CC(C)(CO)n1cc(-c2cnc3ccn4c(CO)c(-c5c(Cl)cccc5Cl)nc4c3c2)cn1 [Example 79, 2-(4-(2-(2,6-Dichlorophenyl)-3-(hydroxymethyl)imidazo[2,1-f][1,6]naphthyridin-9-yl)-1H-pyrazol-1-yl)-2-methylpropan-1-ol]
10 to 100 nM | CN(C)C(=O)c1ccc(-n2cc(-c3cnc4ccn5cc(-c6c(Cl)cccc6Cl)nc5c4c3)cn2)cc1 [Example 43, 4-(4-(2-(2,6-Dichlorophenyl)imidazo[2,1-f][1,6]naphthyridin-9-yl)-1H-pyrazol-1-yl)-N,N-dimethylbenzamide]
< 10 nM | Cn1cc(-c2cnc3ccn4c(CO)c(-c5c(Cl)cccc5Cl)nc4c3c2)cn1 [Example 68, (2-(2,6-Dichlorophenyl)-9-(1-methyl-1H-pyrazol-4-yl)imidazo[2,1-f][1,6]naphthyridin-3-yl)methanol]
10 to 100 nM | Cc1nn(C)cc1-c1cnc2ccn3cc(-c4c(F)cccc4Cl)nc3c2c1 [Example 12, 2-(2-Chloro-6-fluorophenyl)-9-(1,3-dimethyl-1H-pyrazol-4-yl)imidazo[2,1-f][1,6]naphthyridine]
10 to 100 nM | Cc1c(-c2c(Cl)cccc2Cl)nc2c3cc(-c4cnn(C)c4)c(N(C)C)nc3ccn12 [Example 33, 2-(2,6-Dichlorophenyl)-N,N,3-trimethyl-9-(1-methyl-1H-pyrazol-4-yl)imidazo[2,1-f][1,6]naphthyridin-8-amine]
< 10 nM | Cc1c(-c2c(Cl)cccc2Cl)nc2c3cc(-c4cnn(C5CN(C(=O)CC#N)C5)c4)cnc3ccn12 [Example 41, 3-(3-(4-(2-(2,6-Dichlorophenyl)-3-methylimidazo[2,1-f][1,6]naphthyridin-9-yl)-1H-pyrazol-1-yl)azetidin-1-yl)-3-oxopropanenitrile]
10 to 100 nM | Cc1cccc(-c2nc3c4cc(-c5cnn(C)c5)cnc4ccn3c2C)c1C [Example 29, 2-(2,3-Dimethylphenyl)-3-methyl-9-(1-methyl-1H-pyrazol-4-yl)imidazo[2,1-f][1,6]naphthyridine]
< 10 nM | CC(=O)N[C@H]1CC[C@H](n2cc(-c3cnc4ccn5c(C6CC6)c(-c6ccccc6Cl)nc5c4c3)cn2)CC1 [Example 17, N-((1R,4R)-4-(4-(2-(2-Chlorophenyl)-3-cyclopropylimidazo[2,1-f][1,6]naphthyridin-9-yl)-1H-pyrazol-1-yl)cyclohexyl)acetamide]

SMILES | Ki
Cn1cc(-c2cnc3ccc4c(nc(N5[C@@H]6CC[C@H]5C(=O)NC6)n4C)c3n2)cn1 [Example 24, (1S,5R)-8-(3-Methyl-8-(1-methyl-1H-pyrazol-4-yl)-3H-imidazo[4,5-f]quinoxalin-2-yl)-3,8-diazabicyclo[3.2.1]octan-2-one] | ≥ 400 nM
